{
  "source": "patent US20240182407A1",
  "about": "“QUINOLINE COMPOUND SALT OR CRYSTAL FORM, PREPARATION METHOD THEREFOR, AND APPLICATION THEREOF” (Nanjing Zenshine Pharmaceuticals Co., Ltd., priority 2021, published 2024)",
  "key": {"PI3Kδ (p110δ/p85a)": {"target": "T1, PI3Kδ (p110δ/p85a) (Homo sapiens, UniProt O00329)", "T1 construct": "purchased Invitrogen PV6452", "T1 sequence (O00329 whole entry)": "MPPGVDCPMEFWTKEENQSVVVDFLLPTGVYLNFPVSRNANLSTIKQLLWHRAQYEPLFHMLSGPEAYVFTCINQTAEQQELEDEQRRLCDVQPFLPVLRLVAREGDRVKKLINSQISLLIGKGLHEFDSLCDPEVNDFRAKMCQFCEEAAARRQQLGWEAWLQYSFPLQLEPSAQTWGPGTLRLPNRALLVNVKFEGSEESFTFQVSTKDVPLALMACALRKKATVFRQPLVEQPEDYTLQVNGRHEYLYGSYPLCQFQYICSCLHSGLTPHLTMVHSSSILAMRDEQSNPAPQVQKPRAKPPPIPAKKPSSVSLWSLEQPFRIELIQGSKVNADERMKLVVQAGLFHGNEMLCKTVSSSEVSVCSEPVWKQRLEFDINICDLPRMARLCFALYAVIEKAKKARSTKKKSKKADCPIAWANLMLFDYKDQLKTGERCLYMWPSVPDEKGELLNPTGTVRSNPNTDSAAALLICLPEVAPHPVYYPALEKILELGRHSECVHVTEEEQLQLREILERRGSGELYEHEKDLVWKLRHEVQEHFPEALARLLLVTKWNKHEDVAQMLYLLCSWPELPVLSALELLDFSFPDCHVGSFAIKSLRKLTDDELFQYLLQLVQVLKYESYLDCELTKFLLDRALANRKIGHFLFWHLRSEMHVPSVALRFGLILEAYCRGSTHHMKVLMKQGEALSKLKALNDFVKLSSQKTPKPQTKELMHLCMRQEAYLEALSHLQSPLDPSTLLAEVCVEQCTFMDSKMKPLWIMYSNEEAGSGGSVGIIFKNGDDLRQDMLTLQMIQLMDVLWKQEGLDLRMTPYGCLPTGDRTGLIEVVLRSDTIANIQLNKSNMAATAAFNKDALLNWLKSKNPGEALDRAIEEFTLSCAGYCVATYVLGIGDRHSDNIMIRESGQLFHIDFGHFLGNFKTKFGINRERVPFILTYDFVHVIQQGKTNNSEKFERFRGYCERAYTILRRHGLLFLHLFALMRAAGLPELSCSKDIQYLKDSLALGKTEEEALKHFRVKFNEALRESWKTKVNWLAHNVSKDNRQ", "T1 sequence (P27986 whole entry partner)": "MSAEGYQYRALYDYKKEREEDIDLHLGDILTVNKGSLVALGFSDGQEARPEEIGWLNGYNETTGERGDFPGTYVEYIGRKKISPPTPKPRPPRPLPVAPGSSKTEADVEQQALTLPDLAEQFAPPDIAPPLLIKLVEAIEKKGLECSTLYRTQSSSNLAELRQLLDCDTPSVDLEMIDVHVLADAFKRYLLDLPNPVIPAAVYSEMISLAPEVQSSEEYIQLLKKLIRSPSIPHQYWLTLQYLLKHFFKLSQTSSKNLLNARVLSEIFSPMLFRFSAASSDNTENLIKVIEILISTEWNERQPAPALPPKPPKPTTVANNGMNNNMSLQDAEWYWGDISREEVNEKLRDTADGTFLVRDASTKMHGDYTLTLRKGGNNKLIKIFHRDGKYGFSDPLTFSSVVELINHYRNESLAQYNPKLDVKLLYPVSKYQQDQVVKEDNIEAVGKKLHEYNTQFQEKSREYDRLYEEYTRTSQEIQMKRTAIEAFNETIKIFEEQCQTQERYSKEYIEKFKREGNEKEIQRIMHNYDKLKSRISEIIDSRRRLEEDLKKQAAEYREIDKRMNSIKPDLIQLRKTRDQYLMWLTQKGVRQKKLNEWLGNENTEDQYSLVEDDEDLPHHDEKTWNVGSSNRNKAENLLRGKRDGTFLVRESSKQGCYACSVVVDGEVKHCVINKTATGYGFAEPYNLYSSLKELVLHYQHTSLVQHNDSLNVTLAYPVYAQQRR", "test": "ADP-Glo kinase inhibition, PI3Kδ", "details": "read-out: IC50 PI3Kδ Biochemical", "method": "In Example 7, the inhibitory effects of Sample 6 prepared in Example 6 above on kinases PI3Kα, PI3Kβ, PI3Kγ and PI3Kδ were tested.\nThe kinases used in the experiment were respectively purchased from: • PI3Kα (p110α/p85α), purchased from Invitrogen, under Cat. No. PV4788; • PI3Kβ (p110β), purchased from eurofins, under Cat. No. 14-603M; • PI3Kδ (p110δ/p85a), purchased from Invitrogen, under Cat. No. PV6452; and • PI3Kγ (p110γ), purchased from Invitrogen, under Cat. No. PR8641C. • Firstly, a 1× kinase buffer solution was prepared, which comprised: • 50 mM HEPES, pH 7.5 • 3 mM MgCl2 • 1 mM EGTA • 100 mM NaCl • 0.03% CHAPS • 2 mM DTT\nOn kinase PI3Kδ, the final detection concentration of the compound was 1 μM. 100× concentration was prepared, i.e., 100 μM. 90 μL of 100% DMSO was added to the second well in row B on a 96-well plate, 10 μL of a 1000 μM compound solution was then taken from the second well in row A, and 3-fold serial dilution was made to obtain a total of 10 concentrations.\n50 μL of 100% DMSO was transferred to two empty wells as Max well and Min well, respectively.\n50 nL of the compound was transferred into a 384-well plate using ECHO550. […]\nFinally, the chemiluminescence values were read from Envision 2104 Multi-label Reader and subjected to curve fitting, and IC50 was calculated."}, "PI3Kγ": {"target": "T2, PI3Kγ (Mus musculus, UniProt Q9JHG7)", "T2 construct": "host or cells: Raw264.7 cells", "T2 sequence (Q9JHG7 whole entry)": "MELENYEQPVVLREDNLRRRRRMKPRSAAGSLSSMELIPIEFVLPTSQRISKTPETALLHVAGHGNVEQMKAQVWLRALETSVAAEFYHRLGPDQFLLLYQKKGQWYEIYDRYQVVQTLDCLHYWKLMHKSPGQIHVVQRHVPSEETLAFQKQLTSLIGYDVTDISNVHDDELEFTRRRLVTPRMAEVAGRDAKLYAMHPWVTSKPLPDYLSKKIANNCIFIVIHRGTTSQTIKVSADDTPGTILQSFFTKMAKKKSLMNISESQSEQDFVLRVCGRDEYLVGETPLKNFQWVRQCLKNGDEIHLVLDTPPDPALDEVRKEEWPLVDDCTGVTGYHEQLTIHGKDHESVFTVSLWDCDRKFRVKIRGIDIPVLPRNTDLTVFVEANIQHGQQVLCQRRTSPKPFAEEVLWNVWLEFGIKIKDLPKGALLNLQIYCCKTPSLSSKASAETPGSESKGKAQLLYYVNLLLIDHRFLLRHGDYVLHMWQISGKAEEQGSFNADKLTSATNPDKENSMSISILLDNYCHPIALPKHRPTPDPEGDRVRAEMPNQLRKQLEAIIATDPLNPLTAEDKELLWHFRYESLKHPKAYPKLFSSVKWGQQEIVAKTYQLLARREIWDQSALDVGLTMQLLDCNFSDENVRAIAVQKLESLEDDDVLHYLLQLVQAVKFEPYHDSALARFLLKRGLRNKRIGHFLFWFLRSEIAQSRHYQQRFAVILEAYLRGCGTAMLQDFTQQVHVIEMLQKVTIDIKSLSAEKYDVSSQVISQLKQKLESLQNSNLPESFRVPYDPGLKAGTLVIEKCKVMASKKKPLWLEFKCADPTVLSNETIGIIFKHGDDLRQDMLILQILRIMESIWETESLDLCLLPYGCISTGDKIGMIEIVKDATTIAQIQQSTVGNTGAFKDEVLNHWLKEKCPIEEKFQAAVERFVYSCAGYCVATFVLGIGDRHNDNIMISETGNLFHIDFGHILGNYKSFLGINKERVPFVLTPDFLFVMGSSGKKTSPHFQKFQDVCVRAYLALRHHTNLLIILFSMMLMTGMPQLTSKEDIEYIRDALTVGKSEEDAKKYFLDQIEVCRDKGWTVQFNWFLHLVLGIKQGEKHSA", "test": "Akt phosphorylation in Raw264.7 cells stimulated by c5α (AlphaLISA)", "details": "phosphorylation of Akt, read-out: IC50 PI3Kγ Cell-based", "method": "(§1) In addition, taking Sample 6 as an example, the inhibitory effects thereof on PI3Kα, PI3Kβ, PI3Kγ and PI3Kδ in corresponding cells were determined. The activity of PI3Kα was detected by the phosphorylation level of Akt in C2Cl2 cells stimulated by IGF-1, the activity of PI3Kβ was detected by the phosphorylation level of Akt in PC-3 cells stimulated by LPA, the activity of PI3Kγ was detected by the phosphorylation level of Akt in Raw264.7 cells stimulated by c5α, and the activity of PI3Kδ was detected by the phosphorylation level of Akt in Raji cells stimulated by IgM. The phosphorylation level of Akt in cells was determined by means of AlphaLISA technique from PerkinElemer.\n(§2) The C2C12 cells, PC-3 cells, Raw264.7 cells and Raji cells were all purchased from ATCC."}, "PI3Kβ": {"target": "T3, PI3Kβ (Homo sapiens, UniProt P42338)", "T3 construct": "host or cells: PC-3 cells", "T3 sequence (P42338 whole entry)": "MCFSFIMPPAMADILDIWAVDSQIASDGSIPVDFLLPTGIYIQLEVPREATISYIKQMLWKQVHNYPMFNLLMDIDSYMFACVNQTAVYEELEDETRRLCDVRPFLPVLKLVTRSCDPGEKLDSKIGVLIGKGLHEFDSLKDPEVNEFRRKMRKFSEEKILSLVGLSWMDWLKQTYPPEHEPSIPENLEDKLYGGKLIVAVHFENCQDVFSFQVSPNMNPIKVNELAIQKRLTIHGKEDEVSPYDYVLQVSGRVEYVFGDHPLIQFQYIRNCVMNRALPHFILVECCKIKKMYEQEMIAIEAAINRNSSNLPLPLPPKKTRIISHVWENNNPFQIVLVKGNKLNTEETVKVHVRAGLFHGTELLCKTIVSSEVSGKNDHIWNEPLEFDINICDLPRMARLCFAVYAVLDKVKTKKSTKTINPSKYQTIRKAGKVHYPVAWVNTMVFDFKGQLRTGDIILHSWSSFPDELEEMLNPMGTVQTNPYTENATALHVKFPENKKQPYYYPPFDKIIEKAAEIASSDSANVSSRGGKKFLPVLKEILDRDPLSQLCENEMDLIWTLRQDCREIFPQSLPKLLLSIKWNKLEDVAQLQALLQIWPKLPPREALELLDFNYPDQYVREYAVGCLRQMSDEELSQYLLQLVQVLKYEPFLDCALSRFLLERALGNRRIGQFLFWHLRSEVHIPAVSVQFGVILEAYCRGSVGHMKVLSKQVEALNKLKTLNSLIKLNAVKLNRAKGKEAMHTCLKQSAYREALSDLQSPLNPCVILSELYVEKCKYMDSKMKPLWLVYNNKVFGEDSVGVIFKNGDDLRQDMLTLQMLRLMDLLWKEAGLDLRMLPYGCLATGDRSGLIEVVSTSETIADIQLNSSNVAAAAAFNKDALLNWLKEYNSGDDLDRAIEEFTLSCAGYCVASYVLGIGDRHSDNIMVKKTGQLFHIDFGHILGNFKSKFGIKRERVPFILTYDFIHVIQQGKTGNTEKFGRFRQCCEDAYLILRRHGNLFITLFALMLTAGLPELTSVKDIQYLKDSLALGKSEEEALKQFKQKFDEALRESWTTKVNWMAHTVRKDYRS", "T3 sequence (P27986 whole entry partner)": "as the sequence (P27986 whole entry partner) above", "test": "Akt phosphorylation in PC-3 cells stimulated by LPA (AlphaLISA)", "details": "phosphorylation of Akt, read-out: IC50 PI3Kβ Cell-based", "method": "as §1, §2"}, "SU-DHL-4": {"system": "SU-DHL-4", "test": "Proliferation of lymphoma cell line in vitro, SU-DHL-4", "assay_type": "cell-based", "details": "Homo sapiens, read-out: absolute IC50 (AbsIC50), proliferation"}, "WSU-DLCL-2": {"system": "WSU-DLCL-2", "test": "Proliferation of lymphoma cell line in vitro, WSU-DLCL-2", "assay_type": "cell-based", "details": "Homo sapiens, WSUDLCL2, read-out: absolute IC50 (AbsIC50), proliferation"}, "[1]": {"system": "human-derived lymphoma DoHH-2 cell line", "test": "Human-derived lymphoma DoHH-2 subcutaneous xenograft in CB17/SCID female immunodeficient mice", "assay_type": "in vivo, mouse", "details": "Day 24", "method": "In Example 8, the anti-tumor effects of p-toluenesulfonate of Compound A at various dosages by intragastric administration on human-derived lymphoma DoHH-2 cell line subcutaneous transplantation CB17/SCID female immunodeficient mouse model were evaluated.\n7-9-week-old CB17/SCID female immunodeficient mice were subcutaneously inoculated with […] DoHH-2 cells to establish a subcutaneous human lymphoma xenograft tumor model. When the average tumor volume in the mice reached 68 mm^3, the mice were randomly divided into groups and dosed on the day of grouping. The treatment method for each treatment group and vehicle control group was as follows:\np-toluenesulfonate of Compound A (Sample 6), given 100 mg/kg (p.o. QD) group, once daily, for 25 days (days 0-24);\np-toluenesulfonate of Compound A (Sample 6), given 30 mg/kg (p.o. QD) group, once daily, for 25 days (days 0-24);\npositive treatment group (Duvelisib, purchased from Shanghai Lollane biological technology Co., Ltd.), given 50 mg/kg (p.o. BID) twice daily with an interval of 12 h, for 24 days; and\nvehicle control group (5% DMSO/40% PEG400/55% water, by volume) (p.o. QD), given once daily, for 25 days (days 0-24).\nThere were 10 mice in each group, and all the mice were administered starting on the day of grouping (Day 0) and euthanized on Day 24 after grouping (Day 24). The efficacy was evaluated according to the tumor volume at the end point of the experiment.\nThe abbreviation p.o. stood for oral gavage, QD stood for once daily, and BID stood for twice daily.\nThe relative tumor inhibition rate (TGI) was calculated by the following formula: […]\nT and C were respectively the average tumor volumes in the experimental group and the vehicle control group at a specific time point."}},
  "data": [
    {"smiles": "C[C@H](Nc1nc(N)nc(N)c1C#N)c1cc2ccc(F)cc2nc1-c1ccccn1", "note": "[p-toluenesulfonate of Compound A]", "values": [
      {"measurement": "IC50", "setting": "PI3Kδ (p110δ/p85a)", "result": 0.49, "unit": "nM"},
      {"measurement": "IC50", "setting": "PI3Kγ", "result": 29, "unit": "nM"},
      {"measurement": "IC50", "setting": "PI3Kβ", "result": 126, "unit": "nM"},
      {"measurement": "IC50", "setting": "SU-DHL-4", "result": "< 100", "unit": "nM"},
      {"measurement": "IC50", "setting": "WSU-DLCL-2", "result": "< 100", "unit": "nM"},
      {"measurement": "average tumor volume", "setting": "[1]; 30 mg/kg p.o. QD", "result": 984.45, "unit": "mm^3"},
      {"measurement": "relative tumor inhibition rate (TGI)", "setting": "[1]; 30 mg/kg p.o. QD", "result": 54, "unit": "%"},
      {"measurement": "average tumor volume", "setting": "[1]; 100 mg/kg p.o. QD", "result": 549.05, "unit": "mm^3"},
      {"measurement": "relative tumor inhibition rate (TGI)", "setting": "[1]; 100 mg/kg p.o. QD", "result": 75, "unit": "%"}
    ]}
  ]
}
